Legend:
Format in all cases: in vivo
[1] = tested on: spring barley, HORVS Montoya; assay: Tank-mix; post-emergence: crop damage by herbicide with/without safener mefenpyr-diethyl
Procedure, shortened: (§1)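 Greenhouse-grown spring wheat and barley treated post-emergence at 1–3-leaf stage with herbicide alone or tank-mixed with safener, sprayed at various dosages in 300 l/ha water. Crop injury scored visually 1–3 weeks after treatment as % vs untreated (0 none, 100 complete kill).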

[2] = tested on: spring barley, HORVS Montoya; assay: Treatment 1 day before: safener applied one day before herbicide, crop damage
From the text: (§2) Seeds of crops (spring wheat, TRZAS; spring barley, HORVS; maize, ZEAMA) were placed in sandy loam soil in pots of a diameter of 7-8 cm, covered with soil, and cultivated in a greenhouse under good growth conditions until plants were at the 1-3 leaf stage (BBCH 11-13). For split safener and herbicide treatment, first the safener was applied followed by the herbicide treatment on the following day. The safener and herbicides were formulated as WP and sprayed onto the green parts of the plants as an aqueous suspension at an equivalent water application rate of 300 l/ha, with addition of wetting agent and adjuvants (e.g. Mero, 1.5 l/ha; ammonium sulphate, 2 kg/ha). An equivalent set of plants was treated with the herbicides but without the prior safener treatment.
(§3) After application, the test plants were kept in the greenhouse under good growth conditions. 10 and 21 days after treatment (DAT) with the herbicide, % crop damage observed on the treated plants was scored visually in comparison to control plants that had not received any safener or herbicide treatment.

[3] = tested on: spring wheat, TRZAS Triso; assay: as above; conditions: 21 DAT
From the text: as §2, §3

[4] = tested on: spring barley, HORVS Montoya; assay: Seed treatment with safener; post-emergence herbicide, crop damage; conditions: for HER effect + SAF / Reduction [%] / Reduction [Difference]: mefenpyr-diethyl 0.5 g a.i./kg seed
Procedure, shortened: (§4)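 Wheat and barley seeds were coated with safener (g a.i./kg seed) in a slurry prediluted with milk, then sown and grown to BBCH 12. WP herbicides with 1 l/ha MERO in 300 l/ha water were sprayed post-emergence, with untreated-seed plants as reference. Crop damage (%) was scored visually at 10 and 21 DAT.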

[5] = tested on: spring wheat, TRZAS Triso; assay: Tank-mix; post-emergence: crop damage by herbicide with/without safener mefenpyr-diethyl; conditions: 21 DAT
Procedure, shortened: as §1

[6] = tested on: spring wheat, TRZAS Triso; assay: Seed treatment with safener; post-emergence herbicide, crop damage; conditions: 21 DAT; for HER effect + SAF [%] (crop damage) / Reduction [%] / Reduction [Difference]: mefenpyr-diethyl 0.5 g a.i./kg seed; for HER effect [%] (crop damage, herbicide without safener): no safener
Procedure, shortened: as §4

[7] = HER 48 g a.i./ha + mefenpyr-diethyl 100 g a.i./ha, 10 DAT
[8] = HER 50 g a.i./ha, mefenpyr-diethyl 50 g a.i./ha 1 day before, 10 DAT
[9] = HER 100 g a.i./ha, mefenpyr-diethyl 50 g a.i./ha 1 day before, 21 DAT
[10] = HER 200 g a.i./ha, mefenpyr-diethyl 50 g a.i./ha 1 day before
[11] = HER 12 g a.i./ha post-emergence, 21 DAT
[12] = HER 48 g a.i./ha post-emergence, 21 DAT
[13] = HER 100 g a.i./ha, mefenpyr-diethyl 100 g a.i./ha 1 day before, 10 DAT
[14] = HER 100 g a.i./ha, mefenpyr-diethyl 100 g a.i./ha 1 day before
[15] = HER 200 g a.i./ha, mefenpyr-diethyl 100 g a.i./ha 1 day before
[16] = HER 25 g a.i./ha, mefenpyr-diethyl 50 g a.i./ha 1 day before, 21 DAT
[17] = HER 50 g a.i./ha, mefenpyr-diethyl 50 g a.i./ha 1 day before, 21 DAT
[18] = HER 100 g a.i./ha, mefenpyr-diethyl 50 g a.i./ha 1 day before
[19] = HER 24 g a.i./ha + mefenpyr-diethyl 100 g a.i./ha, 21 DAT
[20] = HER 1.5 g a.i./ha + mefenpyr-diethyl 50 g a.i./ha
[21] = HER 6 g a.i./ha + mefenpyr-diethyl 50 g a.i./ha
[22] = HER 24 g a.i./ha + mefenpyr-diethyl 100 g a.i./ha
[23] = HER 24 g a.i./ha post-emergence, 21 DAT
[24] = HER 8 g a.i./ha + mefenpyr-diethyl 50 g a.i./ha, 10 DAT
[25] = HER 32 g a.i./ha + mefenpyr-diethyl 100 g a.i./ha, 10 DAT
[26] = HER 2 g a.i./ha + mefenpyr-diethyl 50 g a.i./ha
[27] = HER 8 g a.i./ha + mefenpyr-diethyl 50 g a.i./ha
[28] = HER 8 g a.i./ha post-emergence, 10 DAT
[29] = HER 32 g a.i./ha post-emergence, 10 DAT

## CCOC(=O)C1C=CC(NC(=O)C2(C(F)(F)F)CC(c3cc(OC)cc(OC)c3)=NO2)C1 (mixture of isomers) [Example 1.12]
[1]; [7]
  HER effect + SAF: 0%
  Reduction [%]: 100%
  Reduction [Difference]: 60
[1]; herbicide alone 48 g a.i./ha, 10 DAT
  HER effect: 60%
[2]; [8]
  HER effect + SAF: 20%
  Reduction [%]: 64%
  Reduction [Difference]: 35
[2]; [9]
  HER effect + SAF: 50%
  Reduction [%]: 29%
  Reduction [Difference]: 20
[2]; herbicide alone 50 g a.i./ha, 10 DAT
  HER effect: 55%
[2]; herbicide alone 100 g a.i./ha, 21 DAT
  HER effect: 70%
[3]; [10]
  HER effect + SAF: 20%
  Reduction [%]: 50%
  Reduction [Difference]: 20
[3]; herbicide alone 200 g a.i./ha
  HER effect: 40%
[4]; [11]
  HER effect + SAF: 0%
  Reduction [%]: 100%
  Reduction [Difference]: 20
[4]; [12]
  HER effect + SAF: 20%
  Reduction [%]: 60%
  Reduction [Difference]: 30
[4]; herbicide alone 12 g a.i./ha post-emergence, 21 DAT
  HER effect: 20%
[4]; herbicide alone 48 g a.i./ha post-emergence, 21 DAT
  HER effect: 50%

## CCOC(=O)C1C=CC(NC(=O)C2(C(F)(F)F)CC(c3ccccc3)=NO2)C1 (stereo not drawn) [Example 1.9]
[2]; [13]
  HER effect + SAF: 20%
  Reduction [%]: 50%
  Reduction [Difference]: 20
[2]; herbicide alone 100 g a.i./ha, 10 DAT
  HER effect: 40%
[3]; [14]
  HER effect + SAF: 20%
  Reduction [%]: 67%
  Reduction [Difference]: 40
[3]; [15]
  HER effect + SAF: 25%
  Reduction [%]: 64%
  Reduction [Difference]: 45
[3]; herbicide alone 100 g a.i./ha
  HER effect: 60%
[3]; herbicide alone 200 g a.i./ha
  HER effect: 70%

## CC1(C(=O)NC2C=CC(C(=O)N3CCCCO3)C2)CC(c2cc(F)cc(F)c2)=NO1 (mixture of isomers) [Example 1.46]
[2]; [16]
  HER effect + SAF: 10%
  Reduction [%]: 78%
  Reduction [Difference]: 35
[2]; [17]
  HER effect + SAF: 20%
  Reduction [%]: 69%
  Reduction [Difference]: 45
[2]; herbicide alone 25 g a.i./ha, 21 DAT
  HER effect: 45%
[2]; herbicide alone 50 g a.i./ha, 21 DAT
  HER effect: 65%
[3]; [18]
  HER effect + SAF: 5%
  Reduction [%]: 92%
  Reduction [Difference]: 55
[3]; [10]
  HER effect + SAF: 5%
  Reduction [%]: 94%
  Reduction [Difference]: 75
[3]; herbicide alone 100 g a.i./ha
  HER effect: 60%
[3]; herbicide alone 200 g a.i./ha
  HER effect: 80%

## C=CC1(C(=O)NC2C=C(C(=O)OCC#N)OC2)CC(c2cc(F)cc(F)c2)=NO1 (stereo not drawn) [Example 1.91]
[1]; [19]
  HER effect + SAF: 10%
  Reduction [%]: 67%
  Reduction [Difference]: 20
[1]; herbicide alone 24 g a.i./ha, 21 DAT
  HER effect: 30%
[5]; [20]
  HER effect + SAF: 0%
  Reduction [%]: 100%
  Reduction [Difference]: 70
[5]; [21]
  HER effect + SAF: 20%
  Reduction [%]: 78%
  Reduction [Difference]: 70
[5]; [22]
  HER effect + SAF: 50%
  Reduction [%]: 38%
  Reduction [Difference]: 30
[5]; herbicide alone 1.5 g a.i./ha
  HER effect: 70%
[5]; herbicide alone 6 g a.i./ha
  HER effect: 90%
[5]; herbicide alone 24 g a.i./ha
  HER effect: 80%
[4]; [23]
  HER effect + SAF: 10%
  Reduction [%]: 67%
  Reduction [Difference]: 20
[4]; herbicide alone 24 g a.i./ha post-emergence, 21 DAT
  HER effect: 30%
[6]; HER dose 1.5 g a.i./ha
  HER effect + SAF [%] (crop damage): 10%
  Reduction [%]: 86%
  Reduction [Difference]: 60
  HER effect [%] (crop damage, herbicide without safener): 70%
[6]; HER dose 6 g a.i./ha
  HER effect + SAF [%] (crop damage): 20%
  Reduction [%]: 78%
  Reduction [Difference]: 70
  HER effect [%] (crop damage, herbicide without safener): 90%
[6]; HER dose 24 g a.i./ha
  HER effect + SAF [%] (crop damage): 10%
  Reduction [%]: 88%
  Reduction [Difference]: 70
  HER effect [%] (crop damage, herbicide without safener): 80%

## COC(=O)C1COCC1NC(=O)C1(C)CC(c2cc(F)cc(F)c2)=NO1 (mixture of isomers) [Example 1.93]
[1]; [24]
  HER effect + SAF: 10%
  Reduction [%]: 88%
  Reduction [Difference]: 75
[1]; [25]
  HER effect + SAF: 30%
  Reduction [%]: 67%
  Reduction [Difference]: 60
[1]; herbicide alone 8 g a.i./ha, 10 DAT
  HER effect: 85%
[1]; herbicide alone 32 g a.i./ha, 10 DAT
  HER effect: 90%
[5]; [26]
  HER effect + SAF: 10%
  Reduction [%]: 88%
  Reduction [Difference]: 75
[5]; [27]
  HER effect + SAF: 50%
  Reduction [%]: 46%
  Reduction [Difference]: 43
[5]; herbicide alone 2 g a.i./ha
  HER effect: 85%
[5]; herbicide alone 8 g a.i./ha
  HER effect: 93%
[4]; [28]
  HER effect + SAF: 30%
  Reduction [%]: 65%
  Reduction [Difference]: 55
[4]; [29]
  HER effect + SAF: 70%
  Reduction [%]: 22%
  Reduction [Difference]: 20
[4]; herbicide alone 8 g a.i./ha post-emergence, 10 DAT
  HER effect: 85%
[4]; herbicide alone 32 g a.i./ha post-emergence, 10 DAT
  HER effect: 90%
[6]; HER dose 2 g a.i./ha
  HER effect + SAF [%] (crop damage): 0%
  Reduction [%]: 100%
  Reduction [Difference]: 85
  HER effect [%] (crop damage, herbicide without safener): 85%
[6]; HER dose 8 g a.i./ha
  HER effect + SAF [%] (crop damage): 10%
  Reduction [%]: 89%
  Reduction [Difference]: 83
  HER effect [%] (crop damage, herbicide without safener): 93%
[6]; HER dose 32 g a.i./ha
  HER effect + SAF [%] (crop damage): 20%
  Reduction [%]: 79%
  Reduction [Difference]: 75
  HER effect [%] (crop damage, herbicide without safener): 95%
